Assay results: PMC3923778 (PLoS Currents, 2014)
pIC50: −log10 of the molar value. “Also recorded” adds a separate entry of the source.

Columns and labels:
[1] = test system: disease-relevant genes; test: Taqman-qPCR of disease-relevant genes; type: in vivo, mouse; conditions: chronic administration; 13 weeks of age; lower dose group study
Experimental: Total RNA was extracted with the mini-RNA kit accordingly to manufacturer instructions (Qiagen). Reverse transcription (RT) was performed using MMLV superscript reverse transcriptase (Invitrogen) and random hexamers (Operon) and all Taqman-qPCR reactions were performed using the Chromo4 Real-Time PCR Detector (BioRad) as described. Expression level of the gene-of-interest was normalised to the geometric mean of three endogenous housekeeping genes (Primer Design) as described. […]

[2] = test system: site 2 of the Na2+-channel; test: Cerep diversity panel screen at 10 µM; type: binding
Experimental: (§1) Studies were conducted at Cerep (France)

[3] = molecular target: T1, human choline transporter (Homo sapiens, UniProt Q9GZV3); test: Cerep diversity panel screen at 10 µM; type: binding
T1 construct: Cerep (contract laboratory)
T1 sequence (Q9GZV3 whole entry): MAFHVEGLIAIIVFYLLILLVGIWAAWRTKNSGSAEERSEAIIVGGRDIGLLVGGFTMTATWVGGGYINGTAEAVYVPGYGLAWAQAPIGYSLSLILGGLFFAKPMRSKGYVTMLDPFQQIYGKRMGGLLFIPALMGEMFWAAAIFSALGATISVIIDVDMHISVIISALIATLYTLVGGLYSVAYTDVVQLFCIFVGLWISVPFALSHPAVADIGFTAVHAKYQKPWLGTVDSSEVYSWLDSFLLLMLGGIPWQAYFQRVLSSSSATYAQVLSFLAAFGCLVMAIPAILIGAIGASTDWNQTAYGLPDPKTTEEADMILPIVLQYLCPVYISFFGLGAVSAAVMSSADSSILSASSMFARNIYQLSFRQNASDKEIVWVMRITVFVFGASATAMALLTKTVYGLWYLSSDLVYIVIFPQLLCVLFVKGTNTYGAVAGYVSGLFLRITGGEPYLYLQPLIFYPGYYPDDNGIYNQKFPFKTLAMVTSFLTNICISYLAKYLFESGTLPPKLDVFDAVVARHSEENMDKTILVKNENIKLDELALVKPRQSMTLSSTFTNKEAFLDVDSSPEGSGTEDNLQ
Experimental: as §1

[4] = test system: α2-adrenergic receptor; test: Cerep diversity panel screen at 10 µM; type: binding
Experimental: as §1

[5] = molecular target: T2, NK3 receptor (Homo sapiens, UniProt P29371); test: Cerep diversity panel screen at 10 µM; type: binding
T2 construct: Cerep (contract laboratory)
T2 sequence (P29371 whole entry, species assumed): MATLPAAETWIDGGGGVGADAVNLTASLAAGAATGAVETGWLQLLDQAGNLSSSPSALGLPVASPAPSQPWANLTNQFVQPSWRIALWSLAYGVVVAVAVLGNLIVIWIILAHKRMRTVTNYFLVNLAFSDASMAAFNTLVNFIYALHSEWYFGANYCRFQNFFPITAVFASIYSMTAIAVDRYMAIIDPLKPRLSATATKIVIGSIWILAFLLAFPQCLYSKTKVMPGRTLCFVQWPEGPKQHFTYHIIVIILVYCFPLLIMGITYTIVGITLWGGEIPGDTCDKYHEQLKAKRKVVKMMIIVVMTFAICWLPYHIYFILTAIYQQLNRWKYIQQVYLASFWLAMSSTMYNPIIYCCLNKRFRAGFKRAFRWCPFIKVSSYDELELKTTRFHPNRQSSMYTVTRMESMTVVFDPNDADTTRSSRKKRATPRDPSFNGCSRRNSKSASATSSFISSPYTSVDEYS
Experimental: as §1

[6] = molecular target: T3, PDE8A1 (Homo sapiens, UniProt O60658); test: IMAP PDE activity assay (Scottish Biomedical); type: biochemical; conditions: NI, no inhibition noted at concentrations tested (up to 10 µM at Cerep and up to 100 µM at Scottish Biomedical)
T3 construct: Scottish Biomedical (contract laboratory)
Experimental: (§2) Studies were conducted at Scottish Biomedical (Scotland, UK)
(§3) Activity against recombinant PDEs (Table 1) was evaluated using the IMAP technology, which is based on high affinity binding of phosphate by immobilized metal coordination complexes on nanoparticles. The binding reagent complexes with phosphate groups on nucleotide monophosphate generated from cyclic nucleotides (cAMP/cGMP) through PDE activity. With fluorescence polarization detection, binding causes a change in the rate of the molecular motion of the phosphate bearing molecule, and results in an increase in the fluorescence polarization value observed for the fluorescent label attached to the substrate.

[7] = molecular target: PDE10A1 (cAMP) (Homo sapiens, UniProt Q9Y233); test: IMAP PDE activity assay (Scottish Biomedical); type: biochemical; conditions: * Extrapolated value
Experimental: as §2, §3

[8] = molecular target: T4, PDE7A1 (Homo sapiens, UniProt Q13946); test: IMAP PDE activity assay (Scottish Biomedical); type: biochemical
T4 construct: Scottish Biomedical (contract laboratory)
Experimental: as §2, §3

[9] = molecular target: T5, PDE2A3 (Homo sapiens, UniProt O00408); test: IMAP PDE activity assay (Scottish Biomedical); type: biochemical; conditions: recombinant PDE2A3
T5 construct: Scottish Biomedical (contract laboratory)
T5 sequence (O00408 whole entry, species assumed): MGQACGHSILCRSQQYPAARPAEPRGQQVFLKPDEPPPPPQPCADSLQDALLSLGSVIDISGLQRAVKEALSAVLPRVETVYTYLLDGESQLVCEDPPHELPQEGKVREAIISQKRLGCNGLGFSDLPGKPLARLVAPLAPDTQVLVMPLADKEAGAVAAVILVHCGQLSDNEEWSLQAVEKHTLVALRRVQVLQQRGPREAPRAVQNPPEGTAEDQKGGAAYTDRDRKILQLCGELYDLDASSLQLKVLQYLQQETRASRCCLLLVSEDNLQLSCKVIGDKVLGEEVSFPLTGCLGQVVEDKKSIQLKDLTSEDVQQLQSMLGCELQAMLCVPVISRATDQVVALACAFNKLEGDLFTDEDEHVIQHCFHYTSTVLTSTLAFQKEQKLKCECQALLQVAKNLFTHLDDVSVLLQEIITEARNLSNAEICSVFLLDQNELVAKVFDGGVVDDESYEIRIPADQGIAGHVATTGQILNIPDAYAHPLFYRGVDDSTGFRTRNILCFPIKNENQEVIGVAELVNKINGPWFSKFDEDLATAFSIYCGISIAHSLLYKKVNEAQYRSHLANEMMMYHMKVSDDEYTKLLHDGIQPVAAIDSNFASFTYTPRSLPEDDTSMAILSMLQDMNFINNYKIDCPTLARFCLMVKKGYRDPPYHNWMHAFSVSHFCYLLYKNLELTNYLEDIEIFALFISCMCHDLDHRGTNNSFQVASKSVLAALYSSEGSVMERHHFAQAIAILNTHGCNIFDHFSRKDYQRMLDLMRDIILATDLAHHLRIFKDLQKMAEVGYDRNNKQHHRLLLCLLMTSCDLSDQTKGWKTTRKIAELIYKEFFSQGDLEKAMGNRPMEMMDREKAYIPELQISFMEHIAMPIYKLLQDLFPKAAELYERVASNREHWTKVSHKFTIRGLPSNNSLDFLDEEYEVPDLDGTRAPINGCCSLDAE
Experimental: as §2, §3

[10] = molecular target: PDE9A2 (Homo sapiens, UniProt O76083); test: IMAP PDE activity assay (Scottish Biomedical); type: biochemical; conditions: * Extrapolated value
Experimental: as §2, §3

[11] = molecular target: T6, PDE1A3 (cAMP) (Homo sapiens, UniProt P54750); test: IMAP PDE activity assay (Scottish Biomedical); type: biochemical; conditions: recombinant PDE1A3 (cAMP)
T6 construct: Scottish Biomedical (contract laboratory)
Experimental: as §2, §3

[12] = molecular target: PDE11A1 (cAMP) (Homo sapiens, UniProt Q9HCR9); test: IMAP PDE activity assay (Scottish Biomedical); type: biochemical; conditions: * Extrapolated value
PDE11A1 (cAMP), sequence (Q9HCR9 whole entry): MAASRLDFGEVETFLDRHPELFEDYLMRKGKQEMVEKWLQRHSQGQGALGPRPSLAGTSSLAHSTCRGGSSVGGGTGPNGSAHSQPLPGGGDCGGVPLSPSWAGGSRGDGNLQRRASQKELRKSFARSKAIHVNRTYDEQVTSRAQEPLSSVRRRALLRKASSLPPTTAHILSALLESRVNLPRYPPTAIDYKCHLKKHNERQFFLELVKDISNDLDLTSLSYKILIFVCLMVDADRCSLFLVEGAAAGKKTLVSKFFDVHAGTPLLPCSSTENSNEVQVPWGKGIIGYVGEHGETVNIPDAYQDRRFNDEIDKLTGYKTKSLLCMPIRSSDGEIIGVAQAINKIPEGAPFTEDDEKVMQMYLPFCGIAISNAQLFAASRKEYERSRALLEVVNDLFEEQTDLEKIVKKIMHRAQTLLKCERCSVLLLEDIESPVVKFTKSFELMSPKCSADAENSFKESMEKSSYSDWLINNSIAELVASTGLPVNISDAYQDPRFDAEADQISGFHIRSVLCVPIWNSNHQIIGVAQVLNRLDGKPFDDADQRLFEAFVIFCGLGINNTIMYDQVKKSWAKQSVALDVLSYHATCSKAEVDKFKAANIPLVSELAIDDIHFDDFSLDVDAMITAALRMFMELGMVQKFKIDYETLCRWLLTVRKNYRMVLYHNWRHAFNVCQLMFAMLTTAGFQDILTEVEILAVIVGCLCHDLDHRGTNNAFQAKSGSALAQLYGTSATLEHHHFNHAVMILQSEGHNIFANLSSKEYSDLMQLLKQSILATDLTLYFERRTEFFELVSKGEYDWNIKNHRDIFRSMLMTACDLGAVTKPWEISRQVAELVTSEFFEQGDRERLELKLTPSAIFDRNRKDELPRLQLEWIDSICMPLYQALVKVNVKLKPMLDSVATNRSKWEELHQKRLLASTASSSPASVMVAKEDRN
Experimental: as §2, §3

[13] = molecular target: T7, PDE6AB (Homo sapiens, UniProt P16499+P35913); test: IMAP PDE activity assay (Scottish Biomedical); type: biochemical; conditions: NI, no inhibition noted at concentrations tested (up to 10 µM at Cerep and up to 100 µM at Scottish Biomedical)
T7 construct: Scottish Biomedical (contract laboratory)
T7 sequence (P16499 whole entry): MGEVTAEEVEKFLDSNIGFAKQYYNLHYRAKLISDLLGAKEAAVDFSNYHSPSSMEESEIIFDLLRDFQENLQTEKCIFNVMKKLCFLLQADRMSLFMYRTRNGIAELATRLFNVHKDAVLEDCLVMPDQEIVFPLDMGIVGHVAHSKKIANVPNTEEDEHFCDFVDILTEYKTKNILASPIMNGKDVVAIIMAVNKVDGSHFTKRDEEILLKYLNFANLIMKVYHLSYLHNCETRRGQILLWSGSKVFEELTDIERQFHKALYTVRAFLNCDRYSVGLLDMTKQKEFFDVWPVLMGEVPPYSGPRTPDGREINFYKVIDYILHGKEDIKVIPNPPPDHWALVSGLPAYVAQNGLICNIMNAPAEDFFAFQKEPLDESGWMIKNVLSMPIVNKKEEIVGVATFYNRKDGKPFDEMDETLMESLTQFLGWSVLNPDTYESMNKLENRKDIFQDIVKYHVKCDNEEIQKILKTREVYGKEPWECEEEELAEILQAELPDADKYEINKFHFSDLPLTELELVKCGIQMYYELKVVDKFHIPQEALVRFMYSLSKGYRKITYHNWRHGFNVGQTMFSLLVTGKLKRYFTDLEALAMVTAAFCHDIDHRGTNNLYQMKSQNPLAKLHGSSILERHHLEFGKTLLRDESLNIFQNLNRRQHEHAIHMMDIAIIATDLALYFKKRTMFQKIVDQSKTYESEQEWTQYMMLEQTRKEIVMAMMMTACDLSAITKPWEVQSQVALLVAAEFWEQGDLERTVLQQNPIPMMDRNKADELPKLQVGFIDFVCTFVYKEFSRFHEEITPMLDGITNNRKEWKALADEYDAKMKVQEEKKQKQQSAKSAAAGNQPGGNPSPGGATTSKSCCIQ
T7 sequence (P35913 whole entry): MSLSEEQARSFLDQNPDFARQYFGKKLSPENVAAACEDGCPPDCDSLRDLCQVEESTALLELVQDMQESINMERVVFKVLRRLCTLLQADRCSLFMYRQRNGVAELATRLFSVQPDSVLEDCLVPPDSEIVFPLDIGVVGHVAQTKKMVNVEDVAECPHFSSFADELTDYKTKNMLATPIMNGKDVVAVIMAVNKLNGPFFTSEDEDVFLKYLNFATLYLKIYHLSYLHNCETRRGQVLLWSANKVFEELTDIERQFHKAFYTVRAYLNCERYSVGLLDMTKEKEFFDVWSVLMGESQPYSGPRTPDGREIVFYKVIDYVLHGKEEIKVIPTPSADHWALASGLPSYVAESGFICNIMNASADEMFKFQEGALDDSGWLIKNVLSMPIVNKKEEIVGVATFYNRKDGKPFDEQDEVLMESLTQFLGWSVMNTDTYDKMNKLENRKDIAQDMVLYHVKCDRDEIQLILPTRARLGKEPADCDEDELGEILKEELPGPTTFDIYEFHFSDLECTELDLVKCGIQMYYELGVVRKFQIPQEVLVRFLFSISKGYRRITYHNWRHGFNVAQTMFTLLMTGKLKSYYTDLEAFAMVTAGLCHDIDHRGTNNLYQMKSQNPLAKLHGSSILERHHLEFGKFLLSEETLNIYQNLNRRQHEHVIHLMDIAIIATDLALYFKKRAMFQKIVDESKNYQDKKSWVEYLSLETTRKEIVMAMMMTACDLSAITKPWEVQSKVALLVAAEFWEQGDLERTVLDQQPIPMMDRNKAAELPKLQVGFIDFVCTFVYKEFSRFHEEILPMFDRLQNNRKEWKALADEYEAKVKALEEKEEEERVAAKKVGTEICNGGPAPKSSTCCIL
Experimental: as §2, §3

[14] = test system: R6/2 mice; test: Rotarod; type: in vivo, mouse; conditions: BID, ANOVA
Experimental: Motor function testing including open field and rear climbing tests were commenced at 4 weeks of age and continued at weeks 6, 8 and 12, for grip strength test at age weeks 4 and 12 and for rotarod at age weeks 4, 6 and 8. Compound treatment was started at 4 weeks of age after the baseline behavioral tests.
Mice were tested at age weeks 4, 6 and 8 over 3 consecutive days (Wed, Thu, Fri). Each daily session included a training trial of 5 min at 4 RPM on the rotarod apparatus (AccuScan Instruments, Columbus, USA). One hour later, the animals were tested for 3 consecutive accelerating trials of 6 min with the speed changing from 0 to 40 RPM over 360 seconds and an inter-trial interval at least 30 min. The latency to fall from the rod was recorded. Mice remaining on the rod for more than 360 s were removed and their time scored as 360 sec.
All values are presented as mean ± Standard Error of Mean (SEM), and differences are considered to be statistically significant at the p < 0.05 level. Statistical analysis was performed using StatsDirect statistical software. Differences between group means were analyzed by 1-way-ANOVA followed by Dunnett’s test (comparison to the control (=vehicle treated TG mice) group). The acquisition of the Cued two-choice swim test was analyzed using Fisher’s exact test.

[15] = set-up: method as in PMID 8961086; conditions: rats; ref [27]; read-out: plasma Cmax exposure; cited from earlier work
[16] = molecular target: T8, PDE5 Cat (Homo sapiens, UniProt O76074); test: IMAP PDE activity assay (Scottish Biomedical); type: biochemical; conditions: PDE5 Cat (catalytic domain)
T8 construct: using full length PDE5 versus the catalytic domain used in our assays; Scottish Biomedical (contract laboratory)

[17] = test system: PDE5; set-up: method as in PMID 9216839, PMID 17697115, PMID 8961086, PMID 7581878; conditions: [12] uses full length PDE5 derived from bovine lung, ref [12], [23], [27], [28], read-out: reported IC50; cited from earlier work
[18] = test system: R6/2 mice; test: Survival study in R6/2 mice; type: in vivo, mouse; conditions: for Mean (±SEM) Survival Time / Medial Survival Time: R6/2 mice
[19] = test system: PDE2; set-up: method as in PMID 9216839, PMID 17697115, PMID 10618442, PMID 8961086, PMID 7581878; conditions: ref [12], [23], [25], [27], [28], read-out: previously reported potencies; cited from earlier work

In the case of CN1C(=O)c2nc(Cc3ccc(C(F)(F)F)cc3)[nH]c2N2C1=N[C@H]1CCC[C@H]12 [SCH-51866, (+)-cis-5,6a,7,8,9,9a-hexahydro-2-[4-[trifluro-methyl]phenylmethyl]-5-methyl-cylopent[4,5]imidazo [2,1-b]purin-4(3H)one], the “expression of disease-relevant genes in striatum, cortex and cerebellum” value [1] was “did not have a statistically significant effect; also recorded: no effects on the dysregulation of these genes”, the inhibition [2] was 66% and the inhibition at 10 µM [3] was 94%. It also gave an inhibition [4] of 88%, an inhibition at 10 µM [5] of 57% and a pIC50 [6] of less than 4.00. For the same compound, the pIC50 [7] was 4.80, the pIC50 [8] was less than 4.00 and the pIC50 [9] was 5.88. For the same compound, the pIC50 [10] was 4.29, the pIC50 [11] was 7.15 and the pIC50 [12] was 4.66. For the same compound, the pIC50 [13] was less than 4.00, the “Rotarod: p vs Vehicle-treated R6/2 mice” value ([14]; Age Week 4, 10 mg/kg p.o.) was “ANOVA: p=0.458” and the “Rotarod: p vs Vehicle-treated R6/2 mice” value ([14]; Age Week 4, 30 mg/kg p.o.) was “ANOVA: p=0.458”. The “Rotarod: p vs Vehicle-treated R6/2 mice” value ([14]; Age Week 6, 10 mg/kg p.o.) was “ANOVA: p=0.262”, the “Rotarod: p vs Vehicle-treated R6/2 mice” value ([14]; Age Week 6, 30 mg/kg p.o.) was “ANOVA: p=0.262” and the “Rotarod: p vs Vehicle-treated R6/2 mice” value ([14]; Age Week 8, 10 mg/kg p.o.) was “ANOVA: p=0.171”. The “Rotarod: p vs Vehicle-treated R6/2 mice” value ([14]; Age Week 8, 30 mg/kg p.o.) was “ANOVA: p=0.171”, the Cmax [15] was 2.37 to 3.8 µM and the pIC50 [16] was 5.55. For the same compound, the pIC50 [17] was 7.22, the “Generalized Wilcoxon (Peto-Prentice) Test, Chi-square for equiv. of death rates p” value ([18]; 10 mg/kg (p.o., BID) column) was “Chi-square for equiv. of death rates p=0.543” and the “Log-rank (Peto) Test, Chi-square for equiv. of death rates p” value ([18]; 10 mg/kg (p.o., BID) column) was 0.555. For the same compound, the “Mean (±SEM) Survival Time” value ([18]; 10 mg/kg (p.o., BID)) was 115 (±7) days, the “Medial Survival Time” value ([18]; 10 mg/kg (p.o., BID)) was 110 days and the “Generalized Wilcoxon (Peto-Prentice) Test, Chi-square for equiv. of death rates p” value ([18]; 30 mg/kg (p.o., BID) column) was “Chi-square for equiv. of death rates p=0.543”. For the same compound, the “Log-rank (Peto) Test, Chi-square for equiv. of death rates p” value ([18]; 30 mg/kg (p.o., BID) column) was 0.555, the “Mean (±SEM) Survival Time” value ([18]; 30 mg/kg (p.o., BID)) was 122 (±5) days and the “Medial Survival Time” value ([18]; 30 mg/kg (p.o., BID)) was 121 days. For the same compound, the “Survival, effect in words” value ([18]; vs R6/2 vehicle-treated animals) was “no survival benefit” and the pIC50 [19] was 5.70.
